One data set relates to H9c2. Kind of data set: cells. Conditions: Rattus norvegicus, H9c2, Myocardium. Type of data set: functional, cell-based.
A short description of data set [1]: A Cell Based Secondary Assay To Explore Cytotoxicity of Compounds that Sensitize Mycobacterium Tuberculosis to Beta-Lactam Antibiotics. Type of data set: functional.
Data set [2] has as its target Voltage-dependent T-type calcium channel subunit alpha-1H (Homo sapiens, UniProt O95180). The data set is classed as functional.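 Also: channel activity triggered by adding a high calcium stimulation buffer.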
A further data set addresses Cytochrome P450 2C19 (Homo sapiens, UniProt P33261). Kind of data set: Cytochrome panel assay with activity outcomes. Panel member name: p450-cyp2c19 Compounds with AC50 equal or less than 10 uM are considered active. Type of data set: functional.
Another data set has as its target Cytochrome P450 2D6 (Homo sapiens, UniProt P10635).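 Also: CYP2D6 member of a cytochrome P450 panel assay.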
The target in the next data set is T1, Cytochrome P450 1A2 (Homo sapiens, UniProt P05177).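 Also: PubChem cytochrome P450 panel assay, CYP1A2 panel member.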
T1 sequence (P05177 whole entry): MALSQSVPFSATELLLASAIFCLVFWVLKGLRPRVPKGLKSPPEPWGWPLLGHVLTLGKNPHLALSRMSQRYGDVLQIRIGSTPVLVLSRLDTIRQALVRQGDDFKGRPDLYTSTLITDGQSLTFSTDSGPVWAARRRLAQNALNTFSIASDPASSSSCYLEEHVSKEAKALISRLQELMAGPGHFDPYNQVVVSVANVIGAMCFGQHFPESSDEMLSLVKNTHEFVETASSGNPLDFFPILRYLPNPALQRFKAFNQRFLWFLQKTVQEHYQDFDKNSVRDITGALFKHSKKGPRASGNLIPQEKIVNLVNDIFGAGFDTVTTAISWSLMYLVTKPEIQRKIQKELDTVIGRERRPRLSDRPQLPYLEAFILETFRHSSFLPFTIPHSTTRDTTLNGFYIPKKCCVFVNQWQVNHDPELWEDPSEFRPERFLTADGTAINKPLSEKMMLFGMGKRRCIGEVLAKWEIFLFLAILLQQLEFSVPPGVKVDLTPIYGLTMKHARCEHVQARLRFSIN

Data set [3] addresses Peroxisome proliferator-activated receptor gamma/Nuclear receptor coactivator 1 (Homo sapiens, UniProt P37231). Kind of data set: TR-FRET dose response biochemical High Throughput Screening assay for agonists of the steroid receptor coactivator 1 (SRC-1) recruitment by the peroxisome proliferator-activated receptor gamma (PPAR gamma): non-selective agonists. [Related pubchem assays (depositor defined):AID1300, AID1808, AID504735, AID631]. The data set is classed as protein assay.

Data set [4] has as its target Peroxisome proliferator-activated receptor gamma/Nuclear receptor coactivator 3 (Homo sapiens, UniProt P37231). Briefly: TR-FRET dose response biochemical High Throughput Screening assay for agonists of the steroid receptor coactivator 3 (SRC-3) recruitment by the peroxisome proliferator-activated receptor gamma (PPAR gamma): non-selective agonists. [Related pubchem assays: 1301 (Confirmation screen.), 1048 (Primary screen.)]. The data set is classed as functional. (In general: TR-FRET usually uses a lanthanide donor and a delayed reading to cut background.)

The target in data set [5] is Peroxisome proliferator-activated receptor gamma/Nuclear receptor coactivator 2 (Homo sapiens, UniProt P37231). Briefly: TR-FRET dose response biochemical High Throughput Screening assay for agonists of the steroid receptor coactivator 2 (SRC-2) recruitment by the peroxisome proliferator-activated receptor gamma (PPAR gamma): non-selective agonists. [Related pubchem assays: 1297, 1032 ]. Type of data set: functional.

The next data set deals with Cytochrome P450 3A4 (Homo sapiens, UniProt P08684).
The target of data set [6] is Glyceraldehyde-3-phosphate dehydrogenase (Homo sapiens, UniProt P04406).
The target of data set [7] is T2, Alkaline phosphatase, tissue-nonspecific isozyme (Homo sapiens, UniProt P05186).
T2 sequence (P05186 whole entry): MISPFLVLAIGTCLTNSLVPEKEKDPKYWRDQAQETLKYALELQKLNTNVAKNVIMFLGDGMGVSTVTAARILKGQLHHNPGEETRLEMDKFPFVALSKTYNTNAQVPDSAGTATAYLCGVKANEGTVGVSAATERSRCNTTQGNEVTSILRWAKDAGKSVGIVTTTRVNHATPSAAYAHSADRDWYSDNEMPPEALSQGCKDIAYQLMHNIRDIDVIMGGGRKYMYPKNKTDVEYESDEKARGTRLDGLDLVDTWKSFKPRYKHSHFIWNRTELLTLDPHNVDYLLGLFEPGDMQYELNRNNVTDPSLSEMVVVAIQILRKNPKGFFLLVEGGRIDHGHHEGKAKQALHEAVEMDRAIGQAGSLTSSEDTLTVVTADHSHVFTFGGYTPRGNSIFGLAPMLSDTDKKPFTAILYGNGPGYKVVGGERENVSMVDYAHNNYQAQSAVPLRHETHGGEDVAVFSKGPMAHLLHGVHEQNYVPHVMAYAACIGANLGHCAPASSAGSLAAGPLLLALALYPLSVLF
Kind of data set: potency against alkaline phosphatase TNAP – biochemical, luminescent, dose response, SAR follow-up (AID 1056).

A further data set has as its target Cytochrome P450 2C9 (Homo sapiens, UniProt P11712).
A short description of data set [8]: Luminescence Cell-Based Dose Retest to Confirm Inhibitors of Cancer Stem Cells. [Related pubchem assays (depositor defined):AID2717, AID2721]. The data set is classed as functional. Conditions: Homo sapiens.
A short description of data set [9]: microbe, parasite or virus in culture. The data set is classed as functional. Conditions: Mycobacterium tuberculosis.
A short description of data set [10]: NIH3T3 cell viability loss – ATP luminescence, mouse fibroblasts, counter-screen, dose response (AID 2010).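 Also: cells exposed to compound for about 90 hours before reading.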 The data set is classed as functional, cell-based. For orientation: Counterscreens check selectivity or assay interference.
The nature of data set [11]: Trypanosoma cruzi growth suppression in host cells – NIH3T3 host cells, beta-gal luminescence, confirmation (AID 2044).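 Also: intracellular parasites grown in NIH/3T3 mouse fibroblasts as host cells; luminescent beta-galactosidase reporter signal from transgenic T. cruzi replicating inside host cells; inhibitors lower the luminescence signal.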 The data set is classed as functional, cell-based.
The target in data set [12] is T3, Mannose-6-phosphate isomerase (Homo sapiens, UniProt P34949).
T3 sequence (P34949 whole entry): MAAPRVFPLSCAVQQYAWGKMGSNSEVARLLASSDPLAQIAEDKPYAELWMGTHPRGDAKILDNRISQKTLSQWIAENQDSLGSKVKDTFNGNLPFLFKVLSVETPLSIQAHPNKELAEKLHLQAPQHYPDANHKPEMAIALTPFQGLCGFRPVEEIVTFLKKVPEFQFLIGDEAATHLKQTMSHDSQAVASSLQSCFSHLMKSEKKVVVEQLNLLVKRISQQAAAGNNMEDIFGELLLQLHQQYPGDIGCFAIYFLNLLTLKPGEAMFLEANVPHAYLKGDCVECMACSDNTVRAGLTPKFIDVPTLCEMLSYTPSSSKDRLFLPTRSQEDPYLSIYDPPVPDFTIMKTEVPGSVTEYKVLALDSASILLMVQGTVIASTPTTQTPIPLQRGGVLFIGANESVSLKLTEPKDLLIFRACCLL
Kind of data set: phosphomannose isomerase inhibition – biochemical, fluorescence intensity, confirmation (AID 1535).

Another data set addresses T4, Phosphomannomutase 2 (Homo sapiens, UniProt O15305).
T4 sequence (O15305 whole entry): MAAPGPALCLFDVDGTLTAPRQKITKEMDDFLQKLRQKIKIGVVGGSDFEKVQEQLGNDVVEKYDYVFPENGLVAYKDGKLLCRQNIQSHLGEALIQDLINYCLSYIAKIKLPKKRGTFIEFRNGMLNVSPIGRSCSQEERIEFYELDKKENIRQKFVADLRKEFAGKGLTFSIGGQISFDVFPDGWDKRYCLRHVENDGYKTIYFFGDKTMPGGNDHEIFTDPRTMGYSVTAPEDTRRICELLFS
Briefly: Counter screen SAR assay for PMM2 inhibitors via a fluorescence intensity assay. [Related pubchem assays (depositor defined):AID1545, AID1574].

Data set [13] is described as follows: viability of uninfected HEp-2 cells – cell-based, HTS, cytotoxicity control for RSV inhibitor project, dose response (AID 2410). The note with it: human respiratory syncytial virus. Type of data set: functional.
A further data set concerns the target T5, Protein skinhead-1 (Caenorhabditis elegans, UniProt P34707).
T5 sequence (P34707 whole entry): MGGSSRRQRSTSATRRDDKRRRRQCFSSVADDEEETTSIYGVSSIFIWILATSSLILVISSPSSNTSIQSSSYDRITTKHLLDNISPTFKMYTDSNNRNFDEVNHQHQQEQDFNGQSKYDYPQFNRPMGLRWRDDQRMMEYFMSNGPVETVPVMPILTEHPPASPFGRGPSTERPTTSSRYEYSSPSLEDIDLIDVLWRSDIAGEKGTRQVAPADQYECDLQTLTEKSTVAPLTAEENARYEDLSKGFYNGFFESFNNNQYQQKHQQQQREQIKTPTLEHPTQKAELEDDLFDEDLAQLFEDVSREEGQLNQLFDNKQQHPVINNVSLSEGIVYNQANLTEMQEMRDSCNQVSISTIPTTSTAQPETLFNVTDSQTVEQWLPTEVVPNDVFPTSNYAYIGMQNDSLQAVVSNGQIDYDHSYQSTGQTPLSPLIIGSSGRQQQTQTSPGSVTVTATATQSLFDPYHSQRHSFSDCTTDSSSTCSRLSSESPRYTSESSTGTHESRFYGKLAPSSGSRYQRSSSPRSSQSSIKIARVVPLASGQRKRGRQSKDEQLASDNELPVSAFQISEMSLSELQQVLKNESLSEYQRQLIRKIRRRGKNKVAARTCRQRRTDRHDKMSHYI
Type of data set: functional.

A further data set has as its system INS1. Briefly: INS-1E survival protection against cytokine death – cell-based, luminescence, retest, dose response (AID 449756).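 Also: cell death triggered by IL-1 beta plus TNF-alpha plus IFN-gamma mixture; protective hits raise ATP signal compared with cytokine alone wells.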 Type of data set: functional. The note with it: Rattus norvegicus.

The source made the active and inactive calls.

Peroxisome proliferator-activated receptor gamma/Nuclear receptor coactivator 2, sequence (P37231 whole entry): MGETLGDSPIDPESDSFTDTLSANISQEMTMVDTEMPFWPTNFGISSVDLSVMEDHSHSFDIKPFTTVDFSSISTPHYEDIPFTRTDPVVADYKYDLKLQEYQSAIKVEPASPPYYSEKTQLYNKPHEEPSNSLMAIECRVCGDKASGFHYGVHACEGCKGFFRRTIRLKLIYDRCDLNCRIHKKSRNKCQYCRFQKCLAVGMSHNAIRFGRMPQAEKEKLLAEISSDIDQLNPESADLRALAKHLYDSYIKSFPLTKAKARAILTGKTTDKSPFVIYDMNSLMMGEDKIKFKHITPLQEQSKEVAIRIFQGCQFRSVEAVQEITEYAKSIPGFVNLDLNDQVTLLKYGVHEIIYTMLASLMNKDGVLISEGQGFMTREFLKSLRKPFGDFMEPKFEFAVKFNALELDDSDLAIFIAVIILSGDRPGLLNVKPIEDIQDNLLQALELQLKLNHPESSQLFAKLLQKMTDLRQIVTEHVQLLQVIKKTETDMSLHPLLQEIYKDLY
Peroxisome proliferator-activated receptor gamma/Nuclear receptor coactivator 2, sequence (Q15596 whole entry, further chain): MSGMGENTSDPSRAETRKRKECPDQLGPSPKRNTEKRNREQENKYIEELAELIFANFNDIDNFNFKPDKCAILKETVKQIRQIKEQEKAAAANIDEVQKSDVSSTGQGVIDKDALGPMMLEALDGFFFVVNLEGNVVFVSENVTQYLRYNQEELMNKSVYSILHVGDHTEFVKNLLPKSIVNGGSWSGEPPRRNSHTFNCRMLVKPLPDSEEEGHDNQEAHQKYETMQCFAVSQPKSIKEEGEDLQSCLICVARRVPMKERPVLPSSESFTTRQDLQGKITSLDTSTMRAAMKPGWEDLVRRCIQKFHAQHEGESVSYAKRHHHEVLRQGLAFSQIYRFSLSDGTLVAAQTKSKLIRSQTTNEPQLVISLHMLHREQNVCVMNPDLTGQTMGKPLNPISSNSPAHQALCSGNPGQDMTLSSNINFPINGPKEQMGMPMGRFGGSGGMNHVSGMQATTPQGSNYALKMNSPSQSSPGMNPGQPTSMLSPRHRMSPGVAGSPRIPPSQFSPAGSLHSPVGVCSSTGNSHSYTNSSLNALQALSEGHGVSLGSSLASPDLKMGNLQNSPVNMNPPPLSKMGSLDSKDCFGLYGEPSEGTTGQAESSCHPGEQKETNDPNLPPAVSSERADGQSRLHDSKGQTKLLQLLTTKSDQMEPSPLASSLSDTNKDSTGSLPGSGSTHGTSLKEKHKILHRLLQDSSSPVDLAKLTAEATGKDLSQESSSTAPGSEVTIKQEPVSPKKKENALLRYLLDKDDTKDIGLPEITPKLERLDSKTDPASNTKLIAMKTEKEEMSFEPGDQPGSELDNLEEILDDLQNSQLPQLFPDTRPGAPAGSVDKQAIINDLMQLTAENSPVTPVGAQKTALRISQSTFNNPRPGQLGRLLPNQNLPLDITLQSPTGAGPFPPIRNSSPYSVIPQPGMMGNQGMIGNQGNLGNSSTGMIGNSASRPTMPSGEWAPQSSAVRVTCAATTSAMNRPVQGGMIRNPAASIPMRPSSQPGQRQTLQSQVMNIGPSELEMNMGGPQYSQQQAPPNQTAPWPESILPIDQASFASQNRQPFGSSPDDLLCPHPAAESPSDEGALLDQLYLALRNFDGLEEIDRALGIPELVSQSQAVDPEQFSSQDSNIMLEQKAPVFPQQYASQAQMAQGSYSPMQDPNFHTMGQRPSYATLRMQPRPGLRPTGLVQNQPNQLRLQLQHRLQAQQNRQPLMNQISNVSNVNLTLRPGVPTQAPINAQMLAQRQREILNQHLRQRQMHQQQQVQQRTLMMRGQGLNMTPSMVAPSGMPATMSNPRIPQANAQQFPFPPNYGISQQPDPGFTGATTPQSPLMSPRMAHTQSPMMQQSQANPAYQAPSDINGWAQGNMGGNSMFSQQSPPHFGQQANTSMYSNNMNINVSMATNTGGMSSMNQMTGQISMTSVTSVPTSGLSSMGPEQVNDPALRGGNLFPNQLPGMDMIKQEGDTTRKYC
Peroxisome proliferator-activated receptor gamma/Nuclear receptor coactivator 3, sequence (P37231 whole entry): as the sequence (P37231 whole entry) above
Peroxisome proliferator-activated receptor gamma/Nuclear receptor coactivator 3, sequence (Q9Y6Q9 whole entry, further chain): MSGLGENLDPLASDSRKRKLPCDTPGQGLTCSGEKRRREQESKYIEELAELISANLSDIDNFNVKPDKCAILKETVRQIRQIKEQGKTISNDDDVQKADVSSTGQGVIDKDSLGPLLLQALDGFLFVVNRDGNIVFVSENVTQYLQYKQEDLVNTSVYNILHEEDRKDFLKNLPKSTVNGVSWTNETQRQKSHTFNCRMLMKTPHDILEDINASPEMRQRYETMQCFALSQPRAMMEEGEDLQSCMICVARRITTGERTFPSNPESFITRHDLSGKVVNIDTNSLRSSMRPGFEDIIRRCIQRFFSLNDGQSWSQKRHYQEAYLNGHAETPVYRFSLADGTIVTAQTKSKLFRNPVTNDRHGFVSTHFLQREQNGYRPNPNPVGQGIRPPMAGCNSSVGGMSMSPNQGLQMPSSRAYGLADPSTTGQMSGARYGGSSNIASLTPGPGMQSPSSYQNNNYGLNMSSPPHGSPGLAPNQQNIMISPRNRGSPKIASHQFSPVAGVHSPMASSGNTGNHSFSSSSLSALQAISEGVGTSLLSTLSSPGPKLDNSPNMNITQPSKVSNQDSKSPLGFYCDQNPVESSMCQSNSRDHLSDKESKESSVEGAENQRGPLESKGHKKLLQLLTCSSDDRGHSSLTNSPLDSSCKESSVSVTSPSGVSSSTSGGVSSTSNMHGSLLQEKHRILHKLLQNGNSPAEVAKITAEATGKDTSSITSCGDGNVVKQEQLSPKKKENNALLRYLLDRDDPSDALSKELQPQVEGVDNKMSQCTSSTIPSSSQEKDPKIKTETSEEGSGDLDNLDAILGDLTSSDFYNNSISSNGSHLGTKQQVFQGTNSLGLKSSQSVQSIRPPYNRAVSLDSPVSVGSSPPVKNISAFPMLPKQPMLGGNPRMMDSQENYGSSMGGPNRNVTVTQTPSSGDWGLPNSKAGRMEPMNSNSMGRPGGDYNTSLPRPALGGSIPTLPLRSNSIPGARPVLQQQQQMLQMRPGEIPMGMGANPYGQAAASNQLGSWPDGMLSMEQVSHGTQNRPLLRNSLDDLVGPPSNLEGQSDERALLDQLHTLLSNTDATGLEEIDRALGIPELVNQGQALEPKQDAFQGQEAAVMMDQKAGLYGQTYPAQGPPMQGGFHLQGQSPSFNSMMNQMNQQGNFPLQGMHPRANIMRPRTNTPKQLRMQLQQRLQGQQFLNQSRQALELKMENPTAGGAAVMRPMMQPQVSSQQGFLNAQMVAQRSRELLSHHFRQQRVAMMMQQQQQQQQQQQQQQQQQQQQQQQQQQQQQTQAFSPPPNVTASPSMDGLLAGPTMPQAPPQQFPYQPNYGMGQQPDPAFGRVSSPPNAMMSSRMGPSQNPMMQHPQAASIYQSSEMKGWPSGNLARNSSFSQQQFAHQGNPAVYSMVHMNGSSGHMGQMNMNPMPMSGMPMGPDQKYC
Cytochrome P450 2C19, sequence (P33261 whole entry): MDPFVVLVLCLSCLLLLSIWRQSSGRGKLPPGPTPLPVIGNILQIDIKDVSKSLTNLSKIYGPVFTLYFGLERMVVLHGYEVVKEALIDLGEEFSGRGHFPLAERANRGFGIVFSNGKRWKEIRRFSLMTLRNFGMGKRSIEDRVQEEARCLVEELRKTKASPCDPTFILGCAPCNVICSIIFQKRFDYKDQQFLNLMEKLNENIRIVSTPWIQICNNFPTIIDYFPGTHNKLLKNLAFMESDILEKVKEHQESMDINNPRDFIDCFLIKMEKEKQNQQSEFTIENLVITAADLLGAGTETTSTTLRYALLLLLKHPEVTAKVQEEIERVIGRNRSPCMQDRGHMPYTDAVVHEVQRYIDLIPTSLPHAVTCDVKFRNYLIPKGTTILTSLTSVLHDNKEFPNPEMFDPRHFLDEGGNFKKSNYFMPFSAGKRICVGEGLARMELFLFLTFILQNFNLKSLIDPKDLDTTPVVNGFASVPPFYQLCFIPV
Glyceraldehyde-3-phosphate dehydrogenase, sequence (P04406 whole entry): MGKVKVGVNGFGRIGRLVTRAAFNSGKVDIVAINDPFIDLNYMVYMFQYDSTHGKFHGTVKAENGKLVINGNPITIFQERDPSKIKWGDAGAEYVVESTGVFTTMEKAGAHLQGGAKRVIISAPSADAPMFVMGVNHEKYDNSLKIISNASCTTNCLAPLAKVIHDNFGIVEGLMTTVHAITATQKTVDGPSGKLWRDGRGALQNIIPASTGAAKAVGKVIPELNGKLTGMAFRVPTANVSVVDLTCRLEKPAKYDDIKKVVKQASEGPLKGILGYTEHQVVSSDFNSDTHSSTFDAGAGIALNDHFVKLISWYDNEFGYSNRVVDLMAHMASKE

Regarding `c1ccc(-c2oc3ncnc(NCCN4CCOCC4)c3c2-c2ccccc2)cc1`, in the data set with H9c2, the IC50 is > 79 µM (inactive). For the same compound, the CC50 in data set [1] is > 40 µM (active).
Take `Cc1ccc(S(=O)(=O)NC(=O)c2ccc(-c3ccc(-c4ccccc4)cc3)o2)c(C)c1`: the EC50 in [2] is 3.33 µM (active).
Consider `COC(=O)[C@@]1(Cc2ccc(F)cc2)[C@H]2c3cc(C(=O)N(C)C)n(Cc4ccc(OC)c(OC)c4)c3C[C@H]2CN1C(=O)c1ccccc1`, for which the AC50 at Cytochrome P450 2C19 (read-out: AC50) is 39.8 µM (inconclusive); on Cytochrome P450 2D6, 39.8 µM (inconclusive); at Cytochrome P450 1A2, 31.6 µM (inconclusive). Also, the CC50 in data set [1] is > 40 µM (active).
As to `COC(=O)c1c(C)[nH]c(C(=O)C(C)Sc2nnc(-c3cc(OC)c(OC)c(OC)c3)o2)c1C` (centres undefined), the EC50 in [3] was > 79.4 µM (inactive); in data set [4], > 79.4 µM (not active); in data set [5], > 79.4 µM (not active).
Take `O=C(Nc1ccccc1)N1CCC2(CC1)CCN(C(=O)Oc1ccccc1)CC2`: the AC50 result at Cytochrome P450 3A4 is listed as “inconclusive”.
For the compound `NC(=O)c1cn(S(=O)(=O)c2ccc3ccccc3c2)c2ccccc12`, the results for the half-maximal inhibitory concentration (IC50) in data set [6] and in [7] were > 100 µM (not active) and > 100 µM (inactive), respectively.
As for `COc1cccc(-c2cc(C(=O)O)[nH]n2)c1`, the IC50 in data set [6] was > 100 µM (not active); in [7], > 100 µM (inactive).
As to `Cc1cccc(N2CCN(CC(=O)Nc3nccs3)CC2)c1C`, the concentration for a half-maximal effect (EC50) in data set [2] was 6.29 µM (active).
For `CC(=O)c1sc(NC(=O)C(C)C)nc1C`, the half-maximal activity concentration (AC50) at Cytochrome P450 2C9 was 39.8 µM (inconclusive); at Cytochrome P450 2C19, “inconclusive”. The EC50 in [3] was > 79.4 µM (inactive); in data set [4], > 79.4 µM (not active); in data set [5], > 26.5 µM (not active).
Regarding `Cc1ccccc1N1CCN(C(=O)c2ccc(Oc3ccc(C(F)(F)F)cn3)cc2)CC1`, the results for the half-maximal effective concentration (EC50) in [2], in [10] and in data set [11] were 5.89 µM (active), > 60 µM (not active) and 2.32 µM (active), respectively. Also, the half-maximal activity concentration (AC50) in data set [8] is 3.43 µM (active). Besides, in [9], the CC50 was > 40 µM (active).
Turning to `O=S(=O)(c1cccc(S(=O)(=O)N2CCC(Cc3ccccc3)CC2)c1)N1CCOCC1`, in data set [2], the EC50 was 8.09 µM (active).
On to `COc1ccc(NC(=O)CSc2c3c(nc4ccccc24)CCCC3)c(OC)c1`, for which the figures for the EC50 in data set [3], in [4] and in [5] were > 79.4 µM (inactive), > 79.4 µM (not active) and 35.4 µM (not active), respectively.
Turning to `COc1cc(N=c2ssnc2Cl)cc(OC)c1`, the values for the half-inhibitory concentration (IC50) (in data set [12]; on Phosphomannomutase 2) were 17.2 µM (active) and > 100 µM (inactive), respectively.
In the case of `CC1Cc2ccccc2N1C(=O)CSc1nc2ccccc2o1` (centres undefined), the EC50 in data set [2] is 9.56 µM (active). Also, in data set [13], the CC50 was 26.9 µM (active). Further, the IC50 at Protein skinhead-1 was > 100 µM (inactive). Moreover, in the data set on INS1, the AC50 is > 260 µM (inactive).
As for `O=C(Cn1cnnc1)c1ccc(O)c(O)c1`, the IC50 in data set [7] is > 100 µM (inactive).
For the compound `Cc1nnc(/N=c2\ssnc2Cl)o1`, the 50% inhibitory concentration (IC50) was 1.07 µM (active) in data set [12] and > 100 µM (inactive) at Phosphomannomutase 2.

Usually IC50 stands for the concentration that gives 50% inhibition. A word on the EC50: it is the concentration at which the effect is half-maximal. Broadly, the AC50 is the midpoint of the concentration-response curve, whichever way the signal moves.

These data come from ChEMBL document CHEMBL1201862, “PubChem BioAssay data set” (2004).
